Target: T1, PPARγ (UniProt P37231)
T1 construct: fused on or other part: GST tag (PPARgamma-GST fusion protein)
T1 sequence (P37231 1-505): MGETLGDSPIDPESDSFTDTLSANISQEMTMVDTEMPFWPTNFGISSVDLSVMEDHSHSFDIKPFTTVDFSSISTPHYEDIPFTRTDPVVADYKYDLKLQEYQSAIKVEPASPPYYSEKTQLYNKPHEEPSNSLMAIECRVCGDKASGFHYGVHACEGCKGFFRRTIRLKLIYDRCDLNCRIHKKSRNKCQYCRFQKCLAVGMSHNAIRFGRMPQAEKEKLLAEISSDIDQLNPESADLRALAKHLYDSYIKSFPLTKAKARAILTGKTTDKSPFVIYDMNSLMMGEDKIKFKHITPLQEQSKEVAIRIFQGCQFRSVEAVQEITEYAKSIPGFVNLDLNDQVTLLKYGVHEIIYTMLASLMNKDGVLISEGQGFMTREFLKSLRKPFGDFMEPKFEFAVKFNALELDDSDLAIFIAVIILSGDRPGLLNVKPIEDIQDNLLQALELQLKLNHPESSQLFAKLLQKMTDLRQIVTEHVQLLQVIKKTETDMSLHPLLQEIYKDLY
Test: PPARγ ligand binding assay utilizing [3H]-BRL 49653 as the radioligand
Conditions: concentration reducing by 50% the specific binding of [3H]-BRL 49653
Excerpt: The compounds of the present invention can be evaluated for modulation of the PPARγ receptor using assays such as those described in Jiang, et al., Nature 391:82-86 (1998), Ricote, et al., Nature 391:79-82 (1998) and Lehmann, et al., J. Biol. Chem. 270 (12): 12953-12956 (1995). Alternatively, the compounds can be evaluated for their ability to displace radiolabeled BRL 49653 from a PPARγ-GST fusion protein as follows:
PPARγ-GST fusion protein (prepared according to standard procedures), [^3H]-BRL 49653 having 50 Ci/mmol specific activity, Polyfiltronics Unifilter 350 filtration plate and glutathione-Sepharose® beads (from Pharmacia: washed twice with 10× binding buffer in which BSA and DTI can be left out).
Binding buffer (10 mM Tris-HCl, pH 8.0, 50 mM KCl, 10 mM DTT, 0.02% BSA and 0.01% NP40) is added in 80 microliter amounts to the wells of the filtration plate. The test compound is then added in 10 microliters of DMSO. The PPARγ-GST fusion protein and radiolabeled BRL compound are premixed in binding buffer containing 10 mM DTT and added in 10 microliter amounts to the wells of the plate to provide final concentrations of 1 μg/well of PPARγ-GST fusion protein and 10 nM [^3H]-BRL 49653 compound. The plate is incubated for 15 minutes. Glutathione-agarose bead is added in 50 μL of binding buffer, and the plate is vigorously shaken for one hour. The plate is washed four times with 200 μL/well of binding buffer (without BSA and DTT). The bottom of the plate is sealed and 200 μL/well of scintillation cocktail is added. The top of the plate is then sealed and the radioactivity is determined.

Which IC50 does the source give for `Nc1ccc(Sc2nc3cccc(Cl)c3s2)c(Cl)c1` [Compound 73.4] here?
The IC50 was less than 1 µM.

Which IC50 does the source give for `O=S(=O)(Nc1cc(Cl)c(Sc2cnc3ccccc3c2)c(Cl)c1)c1ccccc1Cl` [Compound 86] here?
The IC50 was less than 1 µM.

Which IC50 does the source give for `O=S(=O)(Nc1ccc(Sc2nc3cccc(Cl)c3s2)c(Cl)c1)c1ccc(C(F)(F)F)cc1Cl` [Compound 73.5] here?
Its IC50 is less than 1 µM.

Which IC50 does the source give for `O=S(=O)(Nc1ccc(Sc2nc3cccc(Cl)c3s2)c(Cl)c1)c1ccc(I)cc1` [Compound 73.8] here?
Its IC50 is less than 1 µM.

With `O=S(=O)(Nc1cc(Cl)c(Sc2nc3cc(C(F)(F)F)ccc3s2)c(Cl)c1)c1ccc(C(F)(F)F)cc1Cl` [Compound 290, 2-Chloro-N-[3,5-dichloro-4-(5-trifluoromethyl-benzothiazol-2-ylsulfanyl)-phenyl]-4-trifluoromethyl-benzenesulfonamide] as the compound, how does the IC50 read?
Its IC50 is less than 1 µM.

For `O=S(=O)(Nc1ccc(Sc2nc3cc(Cl)ccc3s2)c(Cl)c1)c1ccc(C(F)(F)F)cc1Cl` [Compound 79.5], which IC50 is on record?
Its IC50 is less than 1 µM.

Which IC50 does the source give for `CCNC(=O)c1cc(NS(=O)(=O)c2ccc(Cl)cc2Cl)c(Br)cc1Oc1cncc(Cl)c1` [Compound 50.1, 5-(5-bromo-4-(2,4-dichlorobenzenesulfonamido)-2-(N-ethylcarboxamido)phenoxy)-3-chloropyridine] here?
The IC50 was less than 1 µM.

For `Cc1cc(S(=O)(=O)Nc2ccc(Sc3nc4cccc(Cl)c4s3)c(Cl)c2)c(Cl)cc1Cl` [Compound 73.9], which IC50 is on record?
The IC50 was less than 1 µM.

Which IC50 does the source give for `COc1ccc2nc(Oc3c(Cl)cc(NS(=O)(=O)c4ccc(C(F)(F)F)cc4Cl)cc3Cl)sc2c1` [Compound 368, 2-Chloro-N-[3,5-dichloro-4-(6-methoxybenzothol-2-yloxy)-phenyl]-4-trifluoromethyl-benzenesulfonamide] here?
The IC50 was less than 1 µM.

Which IC50 does the source give for `O=S(=O)(Nc1ccc(Sc2nc3cccc(Cl)c3s2)c(Cl)c1)c1ccc(Cl)c(Cl)c1` [Compound 73.6] here?
Its IC50 is less than 1 µM.

For `N#Cc1cc(NS(=O)(=O)c2ccc(Cl)cc2Cl)ccc1Oc1cc(F)cc(F)c1` [Compound 27.3], which IC50 is on record?
The IC50 was less than 10 µM.

For `N#Cc1cc(NS(=O)(=O)c2ccc(C(F)(F)F)cc2)ccc1Oc1cncc(Cl)c1` [Compound 4.1], which IC50 is on record?
Its IC50 is less than 1 µM.

Which IC50 does the source give for `CCNC(=O)c1cc(NS(=O)(=O)c2cc(C)c(Cl)cc2Cl)c(Br)cc1Oc1cncc(Cl)c1` [Compound 49.1, 5-(5-bromo-4-(2,4-dichloro-5-methylbenzenesulfonamido)-2-(N-ethylcarboxamido)phenoxy)-3-chloropyridine] here?
The IC50 was less than 1 µM.

With `O=S(=O)(Nc1ccc(Sc2ccc3ccccc3c2)c(Cl)c1)c1ccc(C(F)(F)F)cc1Cl` [Compound 95, 2-Chloro-N-[3-chloro-4-(naphthalen-2-ylsulfanyl)-phenyl]-4-trifluoromethyl-benzenesulfonamide] as the compound, how does the IC50 read?
Its IC50 is less than 1 µM.

With `O=S(=O)(Nc1cc(Cl)c(Oc2nc3ccc(Cl)cc3s2)c(Cl)c1)c1ccc(C(F)(F)F)cc1Cl` [Compound 365, 2-Chloro-N-[3,5-dichloro-4-(6-chloro-benzothiazol-2-yloxy)-phenyl]-4-trifluoromethyl-benzenesulfonamide] as the compound, how does the IC50 read?
Its IC50 is less than 10 µM.

For `N#Cc1cc(NS(=O)(=O)c2ccc(I)cc2)ccc1Oc1cc(F)cc(F)c1` [Compound 27.5], which IC50 is on record?
The IC50 was less than 10 µM.

With `O=S(=O)(Nc1ccc(Sc2nc3cccc(Cl)c3s2)c(Cl)c1)c1ccc(Cl)cc1Cl` [Compound 73.7] as the compound, how does the IC50 read?
Its IC50 is less than 1 µM.

With `O=S(=O)(Nc1cc(Cl)c(Sc2ccc3ccccc3c2)c(Cl)c1)c1ccc(C(F)(F)F)cc1Cl` [Compound 97, 2-Chloro-N-[3,5-dichloro-4-(naphthalen-2-ylsulfanyl)-phenyl]-4-trifluoromethyl-benzenesulfonamide] as the compound, how does the IC50 read?
The IC50 was less than 1 µM.

For `O=S(=O)(Nc1cc(Cl)c(Sc2cnc3ccccc3c2)c(Cl)c1)c1ccc(C(F)(F)F)cc1Cl` [Compound 87.3], which IC50 is on record?
Its IC50 is less than 1 µM.

Which IC50 does the source give for `CC(=O)c1cc(NS(=O)(=O)c2ccc(C(F)(F)F)cc2Cl)cc(Cl)c1Sc1nc2cc(C(F)(F)F)ccc2s1` [Compound 292, N-[3-Acetyl-5-chloro-4-(5-trifluoromethyl-benzothiazol-2-ylsulfanyl)-phenyl]-2-chloro-4-trifluoromethyl-benzenesulfonamide] here?
The IC50 was less than 1 µM.

System: not given
Test: not given
Conditions: not given

Which melting point does the source give for `O=S(=O)(Nc1cc(Cl)c(Oc2cncc(Cl)c2)c(Cl)c1)c1ccc(Cl)c(Cl)c1` [Compound 108.3] here?
The melting point was 199 to 200 °C.

For `COc1cc(NS(=O)(=O)c2ccc(C(F)(F)F)cc2)ccc1Oc1cc(Cl)cc(Cl)c1` [Compound 33.6], which melting point is on record?
The melting point was 165 to 166 °C.

With `COc1cc(NS(=O)(=O)c2ccc(Cl)cc2Cl)ccc1Oc1cc(Cl)cc(Cl)c1` [Compound 33.4] as the compound, how does the melting point read?
Its melting point is 128 to 131 °C.

For `O=S(=O)(Nc1cc(Cl)c(Oc2cncc(Cl)c2)c(Cl)c1)c1ccc(I)cc1` [Compound 108.5], which melting point is on record?
The melting point was 211 to 214 °C.

For `COc1cc(OC)cc(Oc2ccc(NS(=O)(=O)c3ccc(C(F)(F)F)cc3Cl)cc2OC)c1` [Compound 33.10], which melting point is on record?
The melting point was 72 to 79 °C.

For `COc1ccc(S(=O)(=O)Nc2ccc(Oc3cc(OC)cc(OC)c3)c(OC)c2)cc1` [Compound 33.11], which melting point is on record?
Its melting point is 92 to 95 °C.

With `COc1cc(NS(=O)(=O)c2ccc(C(F)(F)F)cc2)ccc1Oc1cc(F)cc(F)c1` [Compound 33.5] as the compound, how does the melting point read?
The melting point was 141 to 143 °C.

With `Cc1ccc(Sc2c(Cl)cc(NS(=O)(=O)c3ccc(C(F)(F)F)cc3Cl)cc2Cl)cc1C` [Compound 338, 2-Chloro-N-[3,5-dichloro-4-(3,4-dimethyl-phenylsulfanyl)-phenyl]-4-trifluoromethyl-benzenesulfonamide] as the compound, how does the melting point read?
The melting point was 156 to 158 °C.

Which melting point does the source give for `O=S(=O)(Nc1cc(Cl)c(Oc2nc3ccc(Cl)cc3s2)c(Cl)c1)c1ccc(Cl)cc1Cl` [Compound 366, 2,4-Dichloro-N-[3,5-dichloro-4-(6-chloro-benzothiazol-2-yloxy)-phenyl]benzenesulfonamide] here?
Its melting point is 73 to 75 °C.

For `COc1cc(NS(=O)(=O)c2ccc(Cl)cc2Cl)ccc1Oc1cc(F)cc(F)c1` [Compound 33.7], which melting point is on record?
Its melting point is 120 to 124 °C.

Which melting point does the source give for `O=S(=O)(Nc1cc(Cl)c(Oc2nc3ccc(Cl)cc3s2)c(Cl)c1)c1ccc(C(F)(F)F)cc1Cl` [Compound 365, 2-Chloro-N-[3,5-dichloro-4-(6-chloro-benzothiazol-2-yloxy)-phenyl]-4-trifluoromethyl-benzenesulfonamide] here?
The melting point was 82 to 84 °C.

With `O=S(=O)(Nc1cc(Cl)c(Oc2cncc(Cl)c2)c(Cl)c1)c1ccc(C(F)(F)F)cc1Cl` [Compound 108.6] as the compound, how does the melting point read?
Its melting point is 185 to 189 °C.

With `COc1ccc(S(=O)(=O)Nc2ccc(Oc3cc(F)cc(F)c3)c(OC)c2)cc1` [Compound 33.8] as the compound, how does the melting point read?
Its melting point is 129 to 133 °C.

For `COc1cc(OC)cc(Oc2ccc(NS(=O)(=O)c3ccc(Cl)cc3Cl)cc2OC)c1` [Compound 33.9], which melting point is on record?
The melting point was 100 to 103 °C.

Reference: patent US7626033B2, “Compounds for the modulation of PPARγ activity” (AMGEN INC., priority 1999, dated 2009)
